Bounds are passed on as bounds.

One series has as its system CaCo-2 cells. The experiment in a line: Inhibition of proliferation of CaCo-2 cells (WST-1, Example 8). It is filed as cell-based. To be noted: Homo sapiens, 12 hours; for inhibition at 5 µM: read-out: % Inhibition of Proliferation at 5 μM Compound. Here is the method: The effect of N,N,-diethyl-8,8-dipropyl-2-azaspiro[4,5]decane-2-propanamine dimaleate (Compound 1) and other analogs (structures shown in Table 7) on proliferation of CaCo-2, a human colon carcinoma cell line, were evaluated in the following manner. Cell proliferation was measured by WST-1 dye conversion to Formazan assay using a proliferation kit from BioVision, CA. The procedure used was essentially the same as described in the manufacture's instructions. Briefly, cells were grown for 7 days until they formed semi-confluent monolayers. On day 7, cells were trypsinized and re-suspended in 96-well plates at a concentration of approximately 50,000 cells/well. […] A solution of 10 μl of WST-1 dye per well was added and plates were read after 4 hours at 440 and 600 nm using an ELISA plate reader. The absorbance at 440-600 nm is directly proportion to the number of proliferating cells. All samples were measured in duplicate and results were expressed as an average of two determinations.
For orientation: Formazan colour is commonly taken as a measure of viable cells.

In series [1] the test system is chorioallantoic membrane (CAM). The experiment in a line: Anti-angiogenesis CAM assay. The settings on record: Dose per egg 100 μg; 48 hour exposure; ten eggs. It is filed as in vivo, White Leghorn eggs. How it is done: The dosing was effected by pipetting 40 μl of the indicated solution onto a 13 mm round Thermanox® coverslip and allowing it to air dry. After the material appeared dry, the coverslip was placed onto the chorioallantoic membrane (CAM) of each egg insuring contact of the dried test article with the CAM. After dosing, the eggs were returned to the incubator for approximately 48 hours. Following the 48 hour exposure period, the eggs were removed from the incubator, observed for viability, and the exposed area under the coverslip was examined for loss of vasculature.

In general, IC50 refers to the concentration at which inhibition is half-maximal. A higher IC50 goes with a need for much substance. For `CN(C)CCCN1CCC2(CCC(C(C)(C)C)CC2)CC1` [A], in the series with CaCo-2 cells, the inhibition at 5 µM is 45% and the IC50 is roughly 20 µM.

Turning to `CN(C)CCCN1CCC2(CCOCC2)C1` [B], in the series on CaCo-2 cells, the inhibition at 5 µM is 0% and the half-maximal inhibitory concentration (IC50) was greater than 20 µM.

In the case of `CN(C)CCCN1CCC2(CCC(C(C)(C)C)CC2)C1` (stereo not shown) [Compound C], in the series with CaCo-2 cells, the inhibition at 5 µM came to 15% and the IC50 is greater than 20 µM.

As for `CN(C)CCCN1CCC2(CCCCC2)CC1` [D], in the series on CaCo-2 cells, the inhibition at 5 µM was determined as 0% and the 50% inhibitory concentration (IC50) was greater than 20 µM.

Regarding `CN(C)CCCN1CCC2(CCC(C)(C)CC2)C1` [E], in the series with CaCo-2 cells, the inhibition at 5 µM came to 0% and the IC50 was greater than 20 µM.

For the compound `CCC1(CC)CCC2(CCN(CCCN(C)C)C2)CC1` [F], in the series on CaCo-2 cells, the inhibition at 5 µM came out at 35% and the IC50 was greater than 20 µM.

As to `CCCCCC1(CCCCC)CCC2(CCN(CCCN(C)C)CC2)CC1` [G], in the series on CaCo-2 cells, the inhibition at 5 µM worked out at 86% and the IC50 is roughly 2.5 µM.

Take `CCCCCCCCCCC1CCC2(CC1)CCN(CCCN(C)C)C2` (stereo not shown) [H]: in the series with CaCo-2 cells, the inhibition at 5 µM worked out at 73% and the IC50 was roughly 3.5 µM.

On to `CCCCC1(CCCC)CCC2(CCN(CCCN(C)C)C2)CC1` [J], for which, in the series with CaCo-2 cells, the inhibition at 5 µM is 84% and the IC50 was roughly 2.5 µM.

Turning to `CCCCC1(CC)CCC2(CCN(CCCN(C)C)C2)CC1` (stereo not shown) [K], in the series on CaCo-2 cells, the inhibition at 5 µM amounted to 81% and the IC50 was roughly 2.5 µM.

For the compound `CCCC1(CCC)CCC2(CCN(CCCCCCN(C)C)C2)CC1` [L], in the series with CaCo-2 cells, the inhibition at 5 µM turned out to be 76% and the IC50 was roughly 3.5 µM.

Consider `CCCC1(CCC)CCC2(CCN(CCCN3CCCCC3)C2)CC1` [M], for which, in the series with CaCo-2 cells, the inhibition at 5 µM was 67% and the IC50 was roughly 4 µM.

With `O=C1CCC(N2C(=O)c3ccccc3C2=O)C(=O)N1` (stereo not shown) [Thalidomide, reference compound], in series [1], the “Dead Eggs” value was found to be 0.

The values above are taken from patent publication US20050250801A1, “Method of treating cancer with azaspirane compositions” (priority 2003, published 2005).
